Measured values reported in ChEMBL document CHEMBL3885881, “DrugMatrix”.

Species: Rattus norvegicus
Assay: DrugMatrix - Regimen: Daily Repeat
Type: toxicity, organism-based, Sprague-Dawley
Design: regimen Daily Repeat, gender Male, age 6-8 weeks
Details: in vivo, po, 35 mg/kg, route oral GAVAGE, dose level Low, […]; for ABSOLUTE BASOPHIL / ABSOLUTE EOSINOPHIL / ABSOLUTE LYMPHOCYTE / ABSOLUTE MONOCYTE / ABSOLUTE SEGMENTED NEUTROPHIL / BASOPHIL / EOSINOPHIL / ERYTHROCYTE COUNT / HEMATOCRIT / HEMOGLOBIN / LEUKOCYTE COUNT / LYMPHOCYTE / MEAN CORPUSCULAR HEMOGLOBIN / MEAN CORPUSCULAR HEMOGLOBIN CONCENTRATION / MEAN CORPUSCULAR VOLUME / MONOCYTE / NEUTROPHIL / NUCLEATED RED BLOOD CELLS / PLATELET COUNT: tissue Blood; for ALANINE AMINOTRANSFERASE / ALBUMIN / ALKALINE PHOSPHATASE / ASPARTATE AMINOTRANSFERASE / BLOOD UREA NITROGEN / CARBON DIOXIDE / CHLORIDE / CHOLESTEROL / CREATINE PHOSPHOKINASE / CREATININE / GLUCOSE / LACTATE DEHYDROGENASE / LIPASE / PHOSPHORUS / POTASSIUM / SODIUM / TOTAL BILIRUBIN / TOTAL PROTEIN / URIC ACID: tissue Plasma

Q: How did the “ABSOLUTE BASOPHIL” value (72 h, time 3 day) turn out when CC(=O)Oc1ccccc1C(=O)O [ASPIRIN] was run?
A: 0 CELLS/uL

Q: What about the “ABSOLUTE EOSINOPHIL” value (72 h, time 3 day) of the same compound?
A: 58.67 CELLS/uL

Q: And the “ABSOLUTE LYMPHOCYTE” value (72 h, time 3 day)?
A: 9448 CELLS/uL

Q: And the “ABSOLUTE MONOCYTE” value (72 h, time 3 day)?
A: 29.33 CELLS/uL

Q: And the “ABSOLUTE SEGMENTED NEUTROPHIL” value (72 h, time 3 day)?
A: 530.67 CELLS/uL

Q: What about the BASOPHIL (72 h, time 3 day) of the same compound?
A: 0%

Q: And the EOSINOPHIL (72 h, time 3 day)?
A: 0.67%

Q: What about the “ERYTHROCYTE COUNT” value (72 h, time 3 day) of the same compound?
A: 4.69 x10E6/uL

Q: And the HEMATOCRIT (72 h, time 3 day)?
A: 30.17%

Q: What about the HEMOGLOBIN (72 h, time 3 day) of the same compound?
A: 12.1 G/DL

Q: And the “LEUKOCYTE COUNT” value (72 h, time 3 day)?
A: 10.07 x10E3/uL

Q: What about the LYMPHOCYTE (72 h, time 3 day) of the same compound?
A: 93.33%

Q: And the “MEAN CORPUSCULAR HEMOGLOBIN” value (72 h, time 3 day)?
A: 25.83 pg

Q: What about the “MEAN CORPUSCULAR HEMOGLOBIN CONCENTRATION” value (72 h, time 3 day) of the same compound?
A: 40.1 G/DL

Q: And the “MEAN CORPUSCULAR VOLUME” value (72 h, time 3 day)?
A: 64.4 fL

Q: And the MONOCYTE (72 h, time 3 day)?
A: 0.33%

Q: And the NEUTROPHIL (72 h, time 3 day)?
A: 5.67%

Q: What about the “NUCLEATED RED BLOOD CELLS” value (72 h, time 3 day) of the same compound?
A: 0 /100WBC

Q: And the “PLATELET COUNT” value (72 h, time 3 day)?
A: 951 x10E3/uL

Q: What about the “ALANINE AMINOTRANSFERASE” value (72 h, time 3 day) of the same compound?
A: 86 u/L

Q: What about the ALBUMIN (72 h, time 3 day) of the same compound?
A: 4.17 G/DL

Q: And the “ALKALINE PHOSPHATASE” value (72 h, time 3 day)?
A: 369 u/L

Q: And the “ASPARTATE AMINOTRANSFERASE” value (72 h, time 3 day)?
A: 104.67 u/L

Q: What about the “BLOOD UREA NITROGEN” value (72 h, time 3 day) of the same compound?
A: 13.5 mg/dL

Q: What about the “CARBON DIOXIDE” value (72 h, time 3 day) of the same compound?
A: 32 mmol/L

Q: And the CHLORIDE (72 h, time 3 day)?
A: 101.33 MEQ/L

Q: What about the CHOLESTEROL (72 h, time 3 day) of the same compound?
A: 79.33 mg/dL

Q: What about the “CREATINE PHOSPHOKINASE” value (72 h, time 3 day) of the same compound?
A: 304 u/L

Q: What about the CREATININE (72 h, time 3 day) of the same compound?
A: 0.15 mg/dL

Q: What about the GLUCOSE (72 h, time 3 day) of the same compound?
A: 156 mg/dL

Q: What about the “LACTATE DEHYDROGENASE” value (72 h, time 3 day) of the same compound?
A: 85.33 u/L

Q: And the LIPASE (72 h, time 3 day)?
A: 23.33 u/L

Q: What about the PHOSPHORUS (72 h, time 3 day) of the same compound?
A: 9.53 mg/dL

Q: And the POTASSIUM (72 h, time 3 day)?
A: 5.79 MEQ/L

Q: And the SODIUM (72 h, time 3 day)?
A: 145.73 MEQ/L

Q: And the “TOTAL BILIRUBIN” value (72 h, time 3 day)?
A: 0.2 mg/dL

Q: What about the “TOTAL PROTEIN” value (72 h, time 3 day) of the same compound?
A: 5.7 G/DL

Q: And the “URIC ACID” value (72 h, time 3 day)?
A: 0.53 mg/dL

Q: And the “ABSOLUTE BASOPHIL” value (120 h, time 5 day)?
A: 0 CELLS/uL

Q: And the “ABSOLUTE EOSINOPHIL” value (120 h, time 5 day)?
A: 0 CELLS/uL

Q: And the “ABSOLUTE LYMPHOCYTE” value (120 h, time 5 day)?
A: 9532 CELLS/uL

Q: And the “ABSOLUTE MONOCYTE” value (120 h, time 5 day)?
A: 142 CELLS/uL

Q: What about the “ABSOLUTE SEGMENTED NEUTROPHIL” value (120 h, time 5 day) of the same compound?
A: 926 CELLS/uL

Q: What about the BASOPHIL (120 h, time 5 day) of the same compound?
A: 0%

Q: And the EOSINOPHIL (120 h, time 5 day)?
A: 0%

Q: What about the “ERYTHROCYTE COUNT” value (120 h, time 5 day) of the same compound?
A: 5.39 x10E6/uL

Q: And the HEMATOCRIT (120 h, time 5 day)?
A: 34.33%

Q: What about the HEMOGLOBIN (120 h, time 5 day) of the same compound?
A: 13.4 G/DL

Q: And the “LEUKOCYTE COUNT” value (120 h, time 5 day)?
A: 10.6 x10E3/uL

Q: What about the LYMPHOCYTE (120 h, time 5 day) of the same compound?
A: 90%

Q: And the “MEAN CORPUSCULAR HEMOGLOBIN” value (120 h, time 5 day)?
A: 24.83 pg

Q: What about the “MEAN CORPUSCULAR HEMOGLOBIN CONCENTRATION” value (120 h, time 5 day) of the same compound?
A: 39.03 G/DL

Q: What about the “MEAN CORPUSCULAR VOLUME” value (120 h, time 5 day) of the same compound?
A: 63.63 fL

Q: What about the MONOCYTE (120 h, time 5 day) of the same compound?
A: 1.33%

Q: And the NEUTROPHIL (120 h, time 5 day)?
A: 8.67%

Q: What about the “NUCLEATED RED BLOOD CELLS” value (120 h, time 5 day) of the same compound?
A: 0 /100WBC

Q: And the “PLATELET COUNT” value (120 h, time 5 day)?
A: 1012.67 x10E3/uL

Q: What about the “ALANINE AMINOTRANSFERASE” value (120 h, time 5 day) of the same compound?
A: 59 u/L

Q: And the ALBUMIN (120 h, time 5 day)?
A: 4.1 G/DL

Q: And the “ALKALINE PHOSPHATASE” value (120 h, time 5 day)?
A: 356.67 u/L

Q: And the “ASPARTATE AMINOTRANSFERASE” value (120 h, time 5 day)?
A: 89.33 u/L

Q: And the “BLOOD UREA NITROGEN” value (120 h, time 5 day)?
A: 11.33 mg/dL

Q: And the “CARBON DIOXIDE” value (120 h, time 5 day)?
A: 27.67 mmol/L

Q: What about the CHLORIDE (120 h, time 5 day) of the same compound?
A: 98.67 MEQ/L

Q: What about the CHOLESTEROL (120 h, time 5 day) of the same compound?
A: 69 mg/dL

Q: And the “CREATINE PHOSPHOKINASE” value (120 h, time 5 day)?
A: 329.67 u/L

Q: What about the CREATININE (120 h, time 5 day) of the same compound?
A: 0.17 mg/dL

Q: And the GLUCOSE (120 h, time 5 day)?
A: 164.33 mg/dL

Q: And the “LACTATE DEHYDROGENASE” value (120 h, time 5 day)?
A: 89 u/L

Q: And the LIPASE (120 h, time 5 day)?
A: 11.67 u/L

Q: And the PHOSPHORUS (120 h, time 5 day)?
A: 9.13 mg/dL

Q: And the POTASSIUM (120 h, time 5 day)?
A: 5.65 MEQ/L

Q: What about the SODIUM (120 h, time 5 day) of the same compound?
A: 145.03 MEQ/L

Q: And the “TOTAL BILIRUBIN” value (120 h, time 5 day)?
A: 0.2 mg/dL

Q: What about the “TOTAL PROTEIN” value (120 h, time 5 day) of the same compound?
A: 6.13 G/DL

Q: And the “URIC ACID” value (120 h, time 5 day)?
A: 0.57 mg/dL
